According to patent publication US20150104868A1, “Methods of Maintaining and Improving Biological Cell Function and Activity” (GARGILL INCORPORATED, priority 2012, published 2015):

Tested on: CRL 1730 HUVECs
Assay: Microarray transcriptomics of HUVEC (HGERT/HG, HG/NG)
Format: cell-based, human
[1] = Breast cancer, Cysteine/gluathione
[2] = Breast cancer, Heat shock protein
[3] = Breast cancer, ILK signaling (integrin linked kinase)
[4] = Breast cancer, Mitotic cell cycle
[5] = Breast cancer, One carbon metabolism
[6] = Breast cancer, Peptidase activity
[7] = Breast cancer, Plasminogen activators
[8] = Breast cancer, Reactive oxygen species
[9] = Breast cancer, Tyrosine phosphatase activity
[10] = HUVEC, 5 mM ERT + 30 mM glucose vs 30 mM glucose

**Q.** How did the “HGERT/HG TRIT1 (TRNA isopentenyltransferase 1)” value (Breast cancer, ATP metabolism) turn out when `OC[C@@H](O)[C@@H](O)CO` [ERT, meso-1,2,3,4-tetrahydroxybutane] was run?
**A.** 0.98 Ω

**Q.** What about the “HGERT/HG VPS4B (Vacuolar protein sorting 4 homolog B (S. cerevisiae))” value (Breast cancer, ATP metabolism) of the same compound?
**A.** 0.99 Ω

**Q.** What about the “HGERT/HG YME1L1 (YME1-like 1 (S. cerevisiae))” value (Breast cancer, ATP metabolism) of the same compound?
**A.** 1.00 Ω

**Q.** And the “HGERT/HG CORO1A (Coronin, actin binding protein, 1A)” value (Breast cancer, Actin binding)?
**A.** 0.94 Ω

**Q.** And the “HGERT/HG PLEC1 (Plectin)” value (Breast cancer, Actin binding)?
**A.** Ψ 1.03

**Q.** What about the “HGERT/HG JUP (Junction plakoglobin)” value (Breast cancer, Alpha-catenin binding) of the same compound?
**A.** Ψ 1.01

**Q.** And the “HGERT/HG AHCYL1 (Adenosylhomocysteinase-like 1)” value [1]?
**A.** Ψ 1.01

**Q.** What about the “HGERT/HG ATIC (5-aminoimidazole-4-carboxamide ribonucleotide formyltransferase/IMP cyclohydroiase)” value [1] of the same compound?
**A.** 0.99 Ω

**Q.** What about the “HGERT/HG ESD (Esterase D)” value [1] of the same compound?
**A.** 0.99 Ω

**Q.** What about the “HGERT/HG DCK (Deoxycytidine kinase)” value (Breast cancer, Deoxycytidine metabolism) of the same compound?
**A.** 0.98 Ω

**Q.** And the “HGERT/HG COL4A6 (Collagen, type IV, alpha 6)” value (Breast cancer, Focal adhesion)?
**A.** Ψ 1.03

**Q.** What about the “HGERT/HG DNAJC8 (DnaJ (Hsp40) homolog, subfamily C, member 8)” value [2] of the same compound?
**A.** 0.99 Ω

**Q.** What about the “HGERT/HG DNAJC11 (DnaJ (Hsp40) homolog, subfamily C, member 11)” value [2] of the same compound?
**A.** Ψ 1.01

**Q.** What about the “HGERT/HG ACTN1” value (Breast cancer, Hypoxia response) of the same compound?
**A.** 0.99 Ω

**Q.** What about the “HGERT/HG ACTN1 (Actinin, alpha 1)” value [3] of the same compound?
**A.** Ψ 1.01

**Q.** And the “HGERT/HG FBLIM1 (Flamin binding LIM protein 1)” value [3]?
**A.** Ψ 1.02

**Q.** What about the “HGERT/HG NCK2 (NCK adaptor protein 2)” value [3] of the same compound?
**A.** Ψ 1.01

**Q.** And the “HGERT/HG PXN (Paxillin)” value [3]?
**A.** Ψ 1.01

**Q.** What about the “HGERT/HG RHOB (Ras homolog gene family, member B)” value [3] of the same compound?
**A.** Ψ 1.02

**Q.** What about the “HGERT/HG RHOJ (Ras homolog gene family, member J)” value [3] of the same compound?
**A.** Ψ 1.02

**Q.** What about the “HGERT/HG RSU1 (Ras suppressor protein 1)” value [3] of the same compound?
**A.** 0.99 Ω

**Q.** What about the “HGERT/HG VIM (Vimentin)” value [3] of the same compound?
**A.** 1.00 Ω

**Q.** What about the “HGERT/HG ACTN1 (Actinin, alpha 1)” value (Breast cancer, Insulin binding) of the same compound?
**A.** Ψ 1.01

**Q.** What about the “HGERT/HG FBLM1 (Filamin binding LIM protein 1)” value (Breast cancer, Insulin binding) of the same compound?
**A.** Ψ 1.02

**Q.** And the “HGERT/HG NCK2 (NCK adaptor protein 2)” value (Breast cancer, Insulin binding)?
**A.** Ψ 1.01

**Q.** What about the “HGERT/HG PIK3R1 (Phosphoinositide-3 kinase, regulatory subunit 1 (alpha))” value (Breast cancer, Insulin binding) of the same compound?
**A.** Ψ 1.03

**Q.** And the “HGERT/HG PXN (Paxillin)” value (Breast cancer, Insulin binding)?
**A.** Ψ 1.01

**Q.** What about the “HGERT/HG RHOB (Ras homolog gene family, member B)” value (Breast cancer, Insulin binding) of the same compound?
**A.** Ψ 1.02

**Q.** What about the “HGERT/HG RHOJ (Ras homolog gene family, member J)” value (Breast cancer, Insulin binding) of the same compound?
**A.** Ψ 1.02

**Q.** And the “HGERT/HG RSU1 (Ras suppressor protein 1)” value (Breast cancer, Insulin binding)?
**A.** 0.99 Ω

**Q.** What about the “HGERT/HG VIM (Vimentin)” value (Breast cancer, Insulin binding) of the same compound?
**A.** 1.00 Ω

**Q.** And the “HGERT/HG WDRG (WD repeat domain 6)” value (Breast cancer, Insulin binding)?
**A.** Ψ 1.02

**Q.** What about the “HGERT/HG AZI1 (S-azacytidine induced 1)” value [4] of the same compound?
**A.** Ψ 1.02

**Q.** And the “HGERT/HG CEP135 (Centrosomal protein 135kDa)” value [4]?
**A.** Ψ 1.01

**Q.** What about the “HGERT/HG CEP250 (Centrosomal protein 250kDa)” value [4] of the same compound?
**A.** 0.99 Ω

**Q.** And the “HGERT/HG FGFR1OP (FGFR1 oncogene partner)” value [4]?
**A.** 0.99 Ω

**Q.** And the “HGERT/HG MPHOSPH6 (M-phase phosphoprotein G)” value [4]?
**A.** 0.99 Ω

**Q.** And the “HGERT/HG UBA3 (Ubiquitin-like modifier activating enzyme 3)” value [4]?
**A.** 0.99 Ω

**Q.** What about the “HGERT/HG AHCYL1 (Adenosylhomocysteinase-like 1)” value [5] of the same compound?
**A.** Ψ 1.01

**Q.** What about the “HGERT/HG ATIC (5-aminoimdazole-4-carboxamide ribonucleotide formyltransferase/IMP cyclohydroiase)” value [5] of the same compound?
**A.** 0.99 Ω

**Q.** And the “HGERT/HG ESD (Esterase D)” value [5]?
**A.** 0.99 Ω

**Q.** What about the “HGERT/HG OSTM1 (Osteopetrosis associated transmembrane protein 1)” value (Breast cancer, Osteoclast differentiation) of the same compound?
**A.** 0.99 Ω

**Q.** What about the “HGERT/HG CORO1A (Coronin, actin binding protein, 1A)” value (Breast cancer, PI3 kinase binding) of the same compound?
**A.** 0.94 Ω

**Q.** And the “HGERT/HG ATXN3 (Ataxin 3)” value [6]?
**A.** 0.99 Ω

**Q.** And the “HGERT/HG OTUD5 (OTU domain containing 5)” value [6]?
**A.** Ψ 1.01

**Q.** What about the “HGERT/HG SENP3 (SUMO1/sentrin/SMT3 sepcific peptidase 3)” value [6] of the same compound?
**A.** Ψ 1.01

**Q.** And the “HGERT/HG WFDC12 (WAP four-disulfide core domain 12)” value [6]?
**A.** 0.96 Ω

**Q.** And the “HGERT/HG BAD2 (Bromodomain containing 2)” value [7]?
**A.** Ψ 1.02

**Q.** And the “HGERT/HG RHOJ (Ras homolog gene family, member J)” value [7]?
**A.** Ψ 1.02

**Q.** And the “HGERT/HG COX8A (Cytochrome c oxidase subunit VIIIA (ubiquitous))” value [8]?
**A.** 0.99 Ω

**Q.** And the “HGERT/HG JUP (Junction plankoglobin)” value [8]?
**A.** Ψ 1.01

**Q.** What about the “HGERT/HG MPHOSPH6 (M-phase phosphoprotein 6)” value [8] of the same compound?
**A.** 0.99 Ω

**Q.** What about the “HGERT/HG SDHD (Succinate dehydrogenase complex, subunit D, integral membrane protein)” value [8] of the same compound?
**A.** 0.98 Ω

**Q.** What about the “HGERT/HG SMOX (Spermine oxidase)” value [8] of the same compound?
**A.** 0.99 Ω

**Q.** And the “HGERT/HG SOS1 (Son of sevenless homolog 1 (Drosophila))” value [8]?
**A.** Ψ 1.06

**Q.** What about the “HGERT/HG TCF12 (Transcription factor 12)” value [8] of the same compound?
**A.** 0.99 Ω

**Q.** And the “HGERT/HG TGM2 (Transglutaminase 2 (C polypeptide, protein-glutamine-gamma-glutamyltransferase))” value [8]?
**A.** Ψ 1.01

**Q.** What about the “HGERT/HG PAQR3 (Progestin and adipoQ receptor family member III)” value (Breast cancer, Receptor activity) of the same compound?
**A.** 0.98 Ω

**Q.** What about the “HGERT/HG EID2 (EP300 interacting inhibitor of differentiation 2)” value (Breast cancer, SMAD binding) of the same compound?
**A.** 0.99 Ω

**Q.** What about the “HGERT/HG PGRMC2 (Progesterone receptor membrane component 2)” value (Breast cancer, Steroid hormone receptor activity) of the same compound?
**A.** 0.98 Ω

**Q.** And the “HGERT/HG HS3ST1 (Heparan sulfate (glucosamine) 3-O-sulfotransferase 1)” value (Breast cancer, Sulfotransferase acfivity)?
**A.** Ψ 1.03

**Q.** And the “HGERT/HG DUSP23 (Dual specificity phosphatase 23)” value [9]?
**A.** 0.99 Ω

**Q.** What about the “HGERT/HG PTPLAD1 (Protein tyrosine phosphatase-like A domain containing 1)” value [9] of the same compound?
**A.** Ψ 1.01

**Q.** And the “transcriptomic changes, HG/NG vs HGERT/HG” value (HUVEC, HG conditions)?
**A.** reverses many of the transciptomic changes observed in its absence

**Q.** And the “HGERT/HG transcript ABCB10” value [10]?
**A.** 0.98 Ω

**Q.** What about the “HGERT/HG transcript ACTL6A” value [10] of the same compound?
**A.** 0.98 Ω

**Q.** And the “HGERT/HG transcript ACTN1” value [10]?
**A.** Ψ 1.01

**Q.** And the “HGERT/HG transcript ACTR5” value [10]?
**A.** Ψ 1.01

**Q.** What about the “HGERT/HG transcript AGTPBP1” value [10] of the same compound?
**A.** 0.98

**Q.** What about the “HGERT/HG transcript AHCYL1” value [10] of the same compound?
**A.** Ψ 1.01

**Q.** What about the “HGERT/HG transcript ANKZF1” value [10] of the same compound?
**A.** 0.99

**Q.** What about the “HGERT/HG transcript ATAD1” value [10] of the same compound?
**A.** 0.99 Ω

**Q.** And the “HGERT/HG transcript ATAD3B” value [10]?
**A.** Ψ 1.01

**Q.** What about the “HGERT/HG transcript ATIC” value [10] of the same compound?
**A.** 0.99 Ω

**Q.** And the “HGERT/HG transcript ATP2C1” value [10]?
**A.** 0.99 Ω

**Q.** And the “HGERT/HG transcript ATP5E” value [10]?
**A.** 0.99 Ω

**Q.** What about the “HGERT/HG transcript ATP5O” value [10] of the same compound?
**A.** 1.00 Ω

**Q.** And the “HGERT/HG transcript ATP13A1” value [10]?
**A.** Ψ 1.02

**Q.** And the “HGERT/HG transcript AZI1” value [10]?
**A.** Ψ 1.02

**Q.** And the “HGERT/HG transcript BACE1” value [10]?
**A.** Ψ 1.02

**Q.** What about the “HGERT/HG transcript BBS10” value [10] of the same compound?
**A.** 0.98 Ω

**Q.** What about the “HGERT/HG transcript BRD2” value [10] of the same compound?
**A.** Ψ 1.02

**Q.** What about the “HGERT/HG transcript Bcl2l12” value [10] of the same compound?
**A.** Ψ 1.02

**Q.** What about the “HGERT/HG transcript C3orf26” value [10] of the same compound?
**A.** 0.99 Ω

**Q.** And the “HGERT/HG transcript C6orf66” value [10]?
**A.** 0.99 Ω

**Q.** And the “HGERT/HG transcript C20orf7” value [10]?
**A.** 0.99 Ω

**Q.** What about the “HGERT/HG transcript CARS” value [10] of the same compound?
**A.** 1.00 Ω

**Q.** What about the “HGERT/HG transcript CENPK” value [10] of the same compound?
**A.** 0.97 Ω

**Q.** And the “HGERT/HG transcript CEP135” value [10]?
**A.** Ψ 1.01

**Q.** What about the “HGERT/HG transcript CEP250” value [10] of the same compound?
**A.** 0.99

**Q.** What about the “HGERT/HG transcript CHMP7” value [10] of the same compound?
**A.** 0.99

**Q.** And the “HGERT/HG transcript CIB1” value [10]?
**A.** 1.00 Ω

**Q.** What about the “HGERT/HG transcript CKAPS” value [10] of the same compound?
**A.** Ψ 1.01

**Q.** And the “HGERT/HG transcript CNIH2” value [10]?
**A.** 0.99

**Q.** And the “HGERT/HG transcript COG6” value [10]?
**A.** 0.99

**Q.** And the “HGERT/HG transcript COL4A6” value [10]?
**A.** Ψ 1.03

**Q.** And the “HGERT/HG transcript CORO1A” value [10]?
**A.** 0.94 Ω

**Q.** And the “HGERT/HG transcript COX8A” value [10]?
**A.** 0.99 Ω

**Q.** And the “HGERT/HG transcript CSNK1G1” value [10]?
**A.** Ψ 1.02
